Data set [1] in a line: Bidirectional permeability through Caco-2 cell model. Particulars: human. (In general: Caco-2 monolayers are a common model of the intestinal barrier.)
Experimental: (§1) 100 μL of transport buffer (HBSS containing 10 μM test compound, 0.5% BSA, and 0.5% DMSO) was added to the administration end of A to B • b. 300 μL of transport buffer (HBSS containing 0.5% BSA) was added to the receiving end of A to B • c. 300 μL of transport buffer (HBSS containing 10 μM test compound, 0.5% BSA, and 0.5% DMSO) was added to the administration end of B to A • d. 100 μL of transport buffer (HBSS containing 0.5% BSA) was added to the receiving end of B to A • e. Incubation for 2 hours • d. Samples were taken, processed and detected by mass spectrometry.
(§2) • Instrument: liquid chromatography; • Chromatographic column: Waters XSelect HSS T3 C18 (2.1*50 mm, 2.5 μm); • Mobile phase: phase A: water containing 0.1% formic acid; phase B: acetonitrile containing 0.1% formic acid.
(§3) • Instrument: API4000 liquid chromatography-mass spectrometer; • Ion source: electrospray ionization source (ESI); • Detection method: positive ion detection; • Scan mode: multiple reaction monitoring (MRM) mode.
Data set [2] relates to BRCA2 Knockout DLD-1 cells. Nature of the data set: Inhibition of proliferation of BRCA2 Knockout DLD-1 cells (CellTiter-Glo). The note with it: Homo sapiens, about 144 hours incubation. The class given is cell-based. The procedure:
BRCA2 Knockout DLD-1 cells were cultured using RPMI1640 culture medium containing 10% FBS to an appropriate cell density. The cells were collected, and adjusted to an appropriate cell concentration using the complete culture medium. The cell suspension was spread on a 96-well plate (90 μL per well), and placed in a 37° C., 5% CO2 incubator overnight. Compound solutions of different concentrations were formulated using DMSO and culture medium, and vehicle control was set up. The compound solutions were added to the 96-well plate (10 μL per well), and the plate was incubated in a 37° C., 5% CO2 incubator for about 144 hours. CellTiter-Glo solution was added, and the plate was shaken to mix evenly, and incubated in the dark for 10 to 30 minutes. The values were measured with a Synergy H1 or Envision microplate reader.
The inhibition rate was calculated using the luminescence signal value. The concentration and inhibition rate were fitted to a nonlinear regression curve using Graphpad Prism software to obtain the IC50 value.
On the technique in general: ATP-based viability assays read luminescence as a measure of living cells.

Data set [3] in a line: in vitro. The note with it: human, Caco-2.
Experimental: as §1, §2, §3
Data set [4] in a line: in vivo. Particulars: male, Balb/C, mouse, po, 1 mg/kg.
Experimental: Balb/C mice were used as test animals.
(§4) Male Balb/C mice (6 mice per example), purchased from Shanghai Jiesijie Laboratory Animal Co., LTD, with Certificate No.: SCXK (Shanghai) 2013-0006 N0.311620400001794.
(§5) 5 g of hydroxyethyl cellulose (HEC, CMC-Na, viscosity: 800-1200 Cps) was weighed and dissolved in 1000 mL of purified water, followed by the addition of 10 g of Tween 80. The mixture was mixed well to obtain a clear solution.
(§6) 2.05 mg of the compound was weighed and dissolved in the solution. The mixture was shaken well, crushed in a cell crusher for 1 minute, and sonicated for 15 minutes to obtain a suspension with a concentration of 0.1 mg/mL.
(§7) After an overnight fast, male Balb/C mice were administered p.o. with the test compound at a dose of 1 mg/kg and a volume of 10 mL/kg.
(§8) 0.04 mL of blood was taken from the orbit of the mouse at 0, 0.5, 1, 2, 4, 6, 8 and 24 hours after the administration. The samples were stored in EDTA-K2 tubes, and centrifuged for 6 minutes at 4° C., 6000 rpm to separate the plasma. The plasma samples were stored at −80° C. The mouse was fed 4 hours after the administration.
(§9) • Liquid chromatography condition: Shimadzu LC-20AD pump • Mass spectrometry condition: AB Sciex API 4000 mass spectrometer • Chromatographic column: phenomenex Gemiu 5 μm C18 50×4.6 mm • Mobile phase: Eluent A was 0.1% formic acid in water, and Eluent B was acetonitrile • Flow rate: 0.8 mL/min • Elution time: 0-4.0 minutes, the eluent is as follows:
(§10) The main parameters of pharmacokinetics were calculated by WinNonlin 8.2.
The target of data set [5] is PARP1 enzyme (Homo sapiens (Human), UniProt P09874). The data set is described as follows: Inhibitory activity on PARP1 enzyme (chemiluminescence). The class given is biochemical. The procedure: The inhibitory activity of the compounds on PARP1 enzyme was determined by the chemiluminescence method in the experiment. The experiment was carried out in a 384-well plate. Coating histones in a 384-well plate: 5×histone solution was diluted 5 folds with PBS, added to a 384-well ELISA plate (25 μL per well), and incubated at 4° C. overnight. […] A mixture of PARP reaction biotin-labeled substrate, activated DNA, 10×PARP buffer and water was added (12.5 μL per well). Compound solutions with different concentrations were formulated using the experimental buffer (10% DMSO aqueous solution containing 1.25 mM DTT). The final detection concentration started from 100 nM, with 3-fold dilution and 8 concentrations. The compound solutions were added to the reaction wells of the 384-well plate (2.5 μL per well). 2.5 μL of 10% DMSO aqueous solution containing 1.25 mM DTT was added to the positive control well and blank well (2.5 μL per well). […] The plate was centrifuged at 1000 rpm for 1 minute, and reacted at room temperature for 60 minutes. […] Streptavidin-HRP solution diluted 50 folds with Blocking buffer 3 was added (25 μL per well), and the plate was incubated at room temperature for 30 minutes. […] The luminescence reaction solution obtained by mixing ECL substrate A and ELISA ECL substrate B (1:1) was added (50 μL per well) for reaction. The chemiluminescence values were measured immediately with a BioTek Synergy H1 or Envision instrument.
PARP1 enzyme, sequence (P09874 whole entry): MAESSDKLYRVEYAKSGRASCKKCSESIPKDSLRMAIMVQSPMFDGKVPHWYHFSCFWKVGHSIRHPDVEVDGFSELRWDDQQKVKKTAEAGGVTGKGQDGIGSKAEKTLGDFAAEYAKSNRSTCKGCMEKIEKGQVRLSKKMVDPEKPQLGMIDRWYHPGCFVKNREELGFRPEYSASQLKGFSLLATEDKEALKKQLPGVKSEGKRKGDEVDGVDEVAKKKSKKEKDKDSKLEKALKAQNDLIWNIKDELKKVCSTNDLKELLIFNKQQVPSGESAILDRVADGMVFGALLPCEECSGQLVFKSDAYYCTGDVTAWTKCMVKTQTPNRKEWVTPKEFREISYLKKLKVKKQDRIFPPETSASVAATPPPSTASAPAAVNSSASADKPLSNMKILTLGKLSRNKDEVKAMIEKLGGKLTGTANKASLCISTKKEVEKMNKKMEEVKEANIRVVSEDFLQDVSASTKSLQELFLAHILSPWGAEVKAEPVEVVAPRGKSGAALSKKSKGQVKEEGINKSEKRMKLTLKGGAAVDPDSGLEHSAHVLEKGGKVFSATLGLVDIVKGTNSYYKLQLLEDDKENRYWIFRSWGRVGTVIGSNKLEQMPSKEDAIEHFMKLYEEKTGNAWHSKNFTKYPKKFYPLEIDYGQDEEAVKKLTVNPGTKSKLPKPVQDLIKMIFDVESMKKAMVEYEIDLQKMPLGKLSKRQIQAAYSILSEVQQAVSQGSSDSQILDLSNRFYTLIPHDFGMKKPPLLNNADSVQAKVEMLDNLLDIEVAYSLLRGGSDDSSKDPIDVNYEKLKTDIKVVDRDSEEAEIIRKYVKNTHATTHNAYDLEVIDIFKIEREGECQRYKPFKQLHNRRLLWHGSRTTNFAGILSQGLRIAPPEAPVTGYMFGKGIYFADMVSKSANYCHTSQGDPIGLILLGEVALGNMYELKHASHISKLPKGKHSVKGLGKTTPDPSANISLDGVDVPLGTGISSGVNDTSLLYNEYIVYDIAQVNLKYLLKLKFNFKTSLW
The chemiluminescence values were measured with a BioTek Synergy H1 or Envision instrument. The inhibition rate was calculated, and the concentration and inhibition rate were fitted to a nonlinear regression curve using Graphpad Prism software to obtain the IC50 value.

A short description of data set [6]: Pharmacokinetic assay in Balb/C mice. The note with it: male, mouse, plasma, po, 1 mg/kg.
Experimental: Balb/C mice were used as test animals.
as §4, §5, §6, §7, §8, §9, §10
Data set [7] concerns human colorectal cancer cell line DLD-1 BRCA2−/− subcutaneous xenograft tumor. Nature of the data set: In vivo pharmacodynamic study in DLD-1 BRCA2−/− subcutaneous xenograft tumor model. Particulars: oral, once/day, 21 days.
Experimental: BALB/c nude mice, 6 to 8 weeks old, 9, purchased from the Experimental Animal Management Department of Shanghai Institute of Family Planning
The recovered cells were plated in a cell culture flask (the cell type, date, name of the experimenter and the like were labeled on the wall of the flask), and cultured in a CO2 incubator (the temperature was 37° C. and the CO2 concentration was 5% in the incubator). • b. Cells were passaged once every three days. After passage, the cells continued to be cultured in the CO2 incubator. This process was repeated until the number of cells was sufficient for the in vivo efficacy test. • c. The cultured cells were collected, and counted with an automatic cell counter. According to the counting results, the cells were resuspended with PBS to obtain a cell suspension (density: 5×10^7/mL), which was placed in an ice box for later use.
The nude mice were labeled with disposable universal ear tags for rats and mice before inoculation. • b. During the inoculation, the cell suspension was mixed well. 0.1 to 1 mL of the cell suspension was drawn with a 1 mL syringe, air bubbles were removed, and then the syringe was placed on an ice pack for later use. • c. The nude mouse was bound with the left hand. The position on the right side of the back close to the right shoulder of the nude mouse (inoculation site) was disinfected with 75% alcohol. Inoculation started after 30 seconds. • d. The test nude mice were successively inoculated (each mouse was inoculated with 0.1 mL of cell suspension).
According to the tumor growth, the tumor was measured on 10 to 18 days after the inoculation, and the tumor size was calculated.
Calculation of tumor volume: tumor volume (mm^3)=length (mm)×width (mm)×width (mm)/2 • b. The tumor-bearing mice were grouped according to their body weight and tumor size by random grouping. • c. […] Tumors were measured and the mice were weighed twice a week after the administration of test compounds began. • e. Animals were euthanized at the end of the experiment. • f. Data were processed by using softwares such as Excel.

The values below come from US20240228490A1, “HETEROCYCLIC DERIVATIVE INHIBITOR AND PREPARATION METHOD THEREFOR AND APPLICATION THEREOF” (Shanghai Hansoh Biomedical Co., Ltd., priority 2021, published 2024).

SMILES strings stand for the structures.

Broadly, the Papp A→B is how fast a substance crosses the layer from the apical side. Read a low Papp A→B as poor permeation. A word on the Papp B→A: it is how fast a substance crosses the layer from the basolateral side. As usually defined, the efflux ratio is a quotient of directional permeabilities that is used to spot active efflux. The term IC50 denotes the concentration that gives 50% inhibition. As a reminder, the AUC(0-t) is the area under the concentration-time curve up to a stated or last time point. One may read the Cmax as the peak of the concentration-time curve. A word on the Tmax: it is the time at which the peak concentration occurs. The term half-life denotes how long it takes for the measured level to halve. A low value points to fast loss.

Consider `CCc1cc2ncc(CN3CCN(c4cnc5c(NC)nc(C)cc5c4)CC3)cc2[nH]c1=O` [Example 72, 3-Ethyl-7-((4-(6-methyl-8-(methylamino)-1,7-naphthyridin-3-yl)piperazin-1-yl)methyl)-1,5-naphthyridin-2(1H)-one], for which, in data set [1], the Papp A→B at 2 h, 10 μM turned out to be 5.23 ×10⁻⁶ cm/s; the Papp B→A at 2 h, 10 μM is 12.7 ×10⁻⁶ cm/s; the efflux ratio at 2 h, 10 μM worked out at 2.5. For the same compound, the IC50 in data set [2] is 4.8 nM.

Consider `CNC(=O)c1ccc(C2=CCN(Cc3cnc4cc(C5CC5)c(=O)[nH]c4c3)CC2)cn1` [Example 45, 1′-((7-Cyclopropyl-6-oxo-5,6-dihydro-1,5-naphthyridin-3-yl)methyl)-N-methyl-1′,2′,3′,6′-tetrahydro-[3,4′-bipyridine]-6-carboxamide], for which, in data set [3], the Papp A→B at 2 h, 10 μM was 9.8 ×10⁻⁶ cm/s; the Papp B→A at 2 h, 10 μM came out at 15.3 ×10⁻⁶ cm/s; the efflux ratio at 2 h, 10 μM amounted to 1.6. Moreover, in data set [4], the AUC(0-t) was 221000 ng·h/mL, the highest level (Cmax) was 8980 ng/mL, the time of peak concentration (Tmax) is 1 h and the half-life is 23 h. In addition, the IC50 in data set [5] was 0.8 nM. Also, the IC50 in data set [2] came to 3.5 nM.

As for `CCc1cc2ncc(CN3CCN(c4cnc5c(NC)nccc5c4)CC3)cc2[nH]c1=O` [Example 3, 3-Ethyl-7-((4-(8-(methylamino)-1,7-naphthyridin-3-yl)piperazin-1-yl)methyl)-1,5-naphthyridin-2(1H)-one], in data set [1], the Papp A→B at 2 h, 10 μM worked out at 7.15 ×10⁻⁶ cm/s; the Papp B→A at 2 h, 10 μM was 24.1 ×10⁻⁶ cm/s; the efflux ratio at 2 h, 10 μM was determined as 3.4. Besides, in data set [6], the AUC(0-t) was found to be 12700 ng·h/mL, the peak level (Cmax) was 1570 ng/mL, the Tmax was 0.5 h and the half-life was 3.7 h. The IC50 in data set [5] is 0.4 nM. Also, in data set [7], the “Animal's body weight” value is given as “no significant decrease” and the “Tumor growth inhibition rate TGI (%)” value is recorded as more than 90%.

For the compound `CCc1cc2ncc(CN3CC=C(c4ccc(C(=O)NC5CC5)nc4)CC3)cc2[nH]c1=O` [Example 29, N-Cyclopropyl-1′-((7-ethyl-6-oxo-5,6-dihydro-1,5-naphthyridin-3-yl)methyl)-1′,2′,3′,6′-tetrahydro-[3,4′-bipyridine]-6-carboxamide], in data set [1], the Papp A→B at 2 h, 10 μM amounted to 12.2 ×10⁻⁶ cm/s; the Papp B→A at 2 h, 10 μM turned out to be 19 ×10⁻⁶ cm/s; the efflux ratio at 2 h, 10 μM is 1.6. Further, in data set [6], the AUC(0-t) is 60600 ng·h/mL, the Cmax was 8270 ng/mL, the Tmax was 0.5 h and the half-life was 3.7 h. Further, the IC50 in data set [5] stood at 0.98 nM. In addition, the IC50 in data set [2] amounted to 1.9 nM. In data set [7], the “Animal's body weight” value is on record as “no significant decrease” and the “Tumor growth inhibition rate TGI (%)” value is reported as more than 90%.

As to `CCc1cc2ncc(CN3CC=C(c4cnc(C(=O)NC)s4)CC3)cc2[nH]c1=O` [Example 46, 5-(1-((7-Ethyl-6-oxo-5,6-dihydro-1,5-naphthyridin-3-yl)methyl)-1,2,3,6-tetrahydropyridin-4-yl)-N-methylthiazole-2-carboxamide], the concentration for half-maximal inhibition (IC50) in data set [5] came out at 0.6 nM. In addition, the “Tumor growth inhibition rate TGI (%)” value in data set [7] was more than 90%.

Consider `CCc1cc2ncc(CN3CCC(c4ccc(C(=O)NC)nc4)CC3)cc2[nH]c1=O` [Example 2, 5-(1-((7-Ethyl-6-oxo-5,6-dihydro-1,5-naphthyridin-3-yl)methyl)piperidin-4-yl)-N-methylpicolinamide], for which, in data set [1], the Papp A→B at 2 h, 10 μM was found to be 9.42 ×10⁻⁶ cm/s and the basolateral-to-apical permeability (Papp B→A) at 2 h, 10 μM was determined as 13.5 ×10⁻⁶ cm/s.

Consider `CCc1cc2ncc(CN3CC=C(c4ccc(C(=O)NC)nc4F)CC3)cc2[nH]c1=O` [Example 36, 1′-((7-Ethyl-6-oxo-5,6-dihydro-1,5-naphthyridin-3-yl)methyl)-2-fluoro-N-methyl-1′,2′,3′,6′-tetrahydro-[3,4′-bipyridine]-6-carboxamide], for which, in data set [1], the Papp A→B at 2 h, 10 μM turned out to be 14.8 ×10⁻⁶ cm/s; the Papp B→A at 2 h, 10 μM amounted to 15.6 ×10⁻⁶ cm/s; the efflux ratio at 2 h, 10 μM turned out to be 1.1. Also, in data set [6], the AUC(0-t) is 61900 ng·h/mL, the peak level (Cmax) was 6550 ng/mL, the Tmax is 0.5 h and the half-life is 4.6 h. In data set [5], the IC50 turned out to be 0.8 nM. Moreover, in data set [2], the IC50 is 1.6 nM.

Regarding `CCc1cc2ncc(CN3CC=C(c4ccc(C(=O)NC)nc4C#N)CC3)cc2[nH]c1=O` [Example 35, 2-Cyano-1′-((7-ethyl-6-oxo-5,6-dihydro-1,5-naphthyridin-3-yl)methyl)-N-methyl-1′,2′,3′,6′-tetrahydro-[3,4′-bipyridine]-6-carboxamide], in data set [3], the Papp A→B at 2 h, 10 μM was found to be 5.19 ×10⁻⁶ cm/s; the apparent permeability from basolateral to apical (Papp B→A) at 2 h, 10 μM was determined as 15.7 ×10⁻⁶ cm/s; the efflux ratio at 2 h, 10 μM stood at 3. For the same compound, in data set [4], the AUC(0-t) amounted to 43200 ng·h/mL, the peak level (Cmax) was 6100 ng/mL, the Tmax came to 0.5 h and the half-life is 2.7 h. The IC50 in data set [5] amounted to 1 nM. The IC50 in data set [2] is 2.3 nM. The “Tumor growth inhibition rate TGI (%)” value in data set [7] is on record as more than 90%.

In the case of `CCc1cc2c(C#N)cc(CN3CC=C(c4ccc(C(=O)NC)nc4)CC3)cc2[nH]c1=O` [Example 42, 1′-((5-Cyano-3-ethyl-2-oxo-1,2-dihydroquinolin-7-yl)methyl)-N-methyl-1′,2′,3′,6′-tetrahydro-[3,4′-bipyridine]-6-carboxamide], the IC50 in data set [5] worked out at 1.3 nM; in data set [2], 3 nM.
